Marks after values point to notes of the source that are not given here.
How the values were obtained:
[1] = test system: Ba/F3 KIF5B-RET^G810R cell line tumor model; experiment: Anti-tumor effect assay in Ba/F3 KIF5B-RET^G810R cell line tumor model (allograft); type: in vivo, female NPSG mice; conditions: for Tumor volume (x ± S), Day 0 of administration / Tumor volume (x ± S), Day 13 of administration / TGI (%), Day 13 of administration: Ba/F3 KIF5B-RET^G810R model; for Tumor volume (x ± S), Day 0 of administration: 25 mg/kg p.o. QD × 13, day 0 (baseline); for Tumor volume (x ± S), Day 13 of administration / TGI (%), Day 13 of administration: 25 mg/kg p.o. QD × 13, day 13; for TGI (%), Day 13 of administration: TGI more than 100% = decrease in tumor volume; for relative tumor inhibition rate TGI (%): day 13 of administration, AD80 group 25 mg/kg
Text: (§1) The efficacy of compounds of the present disclosure in female NPSG mouse allograft models of two B-cell lymphoma cell lines Ba/F3 KIF5B-RET and Ba/F3 KIF5B-RET^G810R was verified.
(§2) Assay animals: Female NPSG mice, 6-8 weeks old (age of mice at the time of tumor cell inoculation), weighing 18-20 g, 60 mice, purchased from Shanghai Jihui Laboratory Animal Care Co., Ltd.
(§3) Assay methods: 1) Ba/F3 KIF5B-RET and Ba/F3 KIF5B-RET^G810R cells were respectively resuscitated and Cultured in vitro, and 3×10^7 cells of each type were obtained. 2) 60 female NPSG mice aged 6-8 weeks were adaptively bred for 1 week and then weighed. 4) After inoculation, tumor volume and body weight were measured once a week. When average tumor volume reached about […], mice inoculated with each type of Ba/F3 cells were randomly divided into 7 groups according to tumor volume and body weight, with 3 mice in each group. The administration was started immediately after grouping. The date of start of administration was regarded as day 0. Informations on administration and grouping were shown in Tables 5 and 6.5) After the start of the administration, the body weight and tumor volume of mice were measured twice a week. 6) After the end of the administration, the assay was over.
(§4) Assay observation and data collection: After tumor inoculation, morbidity and death of animals were observed every working day. Daily observation included tumor growth and effects of drugs on laboratory animals, such as changes in activity, changes in feeding and drinking, weight loss, changes in appearance of hair and eye, death and other clinical symptoms. Formula for calculating tumor volume is: tumor volume (mm^3)=½×(a×b^2) (wherein a represents the long diameter and b represents the short diameter)
(§5) Relative tumor inhibition rate TGI (%): TGI %=(1−T/C)×100%. T/C % is relative tumor proliferation rate, that is, a percentage value of relative tumor volume between treatment group and control group at a certain point in time. T and C are relative tumor volume (RTV, that is, the […] tumor volume at this time point and tumor volume at day 0) of treatment group and control group at a certain point in time, respectively.
(§6) Statistical analysis: For pairwise comparison, a T-Test analysis method was used, and for comparison of three or more groups, a One-Way ANOVA method was used. For comparison of potential synergistic effects, a Two-way ANOVA was used. SPSS 24.0 was used for all data. A p value less than 0.05 was considered a significant difference.

[2] = Safety assay (body weight, tolerability) in Ba/F3 KIF5B-RET^G810R cell line tumor model; type: in vivo; conditions: for Number of animals at the beginning/end of assay: 25 mg/kg p.o. QD × 13; for Average weight g (x ± S), Day 0 of administration: 25 mg/kg p.o. QD × 13, day 0 (baseline); for Average weight g (x ± S), Day 13 of administration / Weight change rate (%), Day 13 of administration: 25 mg/kg p.o. QD × 13, day 13; for tolerability (weight loss, drug withdrawal, drug toxicity): during the treatment
Protocol: as §3, §4

[3] = Safety assay (body weight, tolerability) in Ba/F3 KIF5B-RET cell line tumor model; type: in vivo; conditions: for Number of animals at the beginning/end of assay: 10 mg/kg p.o. QD × 14; for Average weight g (x ± S), Day 0 of administration: 10 mg/kg p.o. QD × 14, day 0 (baseline); for Average weight g (x ± S), Day 14 of administration / Weight change rate (%), Day 14 of administration: 10 mg/kg p.o. QD × 14, day 14; for tolerability (weight loss, drug withdrawal, drug toxicity): during the treatment
Protocol: as §3, §4

[4] = test system: Ba/F3 KIF5B-RET cell line tumor model; experiment: Anti-tumor effect assay in Ba/F3 KIF5B-RET cell line tumor model (allograft); type: in vivo, female NPSG mice; conditions: for Tumor volume (x ± S), Day 0 of administration: 10 mg/kg p.o. QD × 14, day 0 (baseline); for TGI (%), Day 14 of administration / Tumor volume (x ± S), Day 14 of administration: 10 mg/kg p.o. QD × 14, day 14
Text: as §1, §2, §3, §4, §5, §6

Ret wt = molecular target: T1, Ret wt (Homo sapiens, UniProt P07949); experiment: Inhibition of kinase, Ret wt (HTRF KinEASE-TK); type: biochemical
T1 construct: purchased Carna 08-159-10 ug
Protocol: (§7) Ret wt (Carna, Cat. No. 08-159-10 ug), RET (V804M), Active (Signalchem. Cat. No. R02—12GG), HTRF KinEASE-TK kit (Cisbio, Cat. No.62TK0PEC), CEP-32496 (MCE, Cat. No. HY-15200), ATP (Sigma. Cat. No. A7699), DMSO (Sigma, Cat. No. D8418-1L), DTT (Sigma, Cat. No. D0632), MgCl2(Sigma, Cat. No. M1028), 384-well plate (Labcyte, Cat. No. P-05525-BC).
(§8) Formulation of compound: The test compounds were dissolved in DMSO to obtain 10 mM stock solutions, which were then serially diluted 3-fold in DMSO to obtain 10 concentrations. At the time of addition, the compound was further diluted 10-fold with buffer.
(§9) In 5×kinase buffer A, Ret wt or RET V804M kinase was mixed with different concentrations of compounds prepared by pre-dilution for 10 minutes. Each concentration was tested in duplicate. The corresponding substrate and ATP were added, and reaction was performed at room temperature for 20 minutes (negative and positive controls were provided: the negative control was a blank control, and the positive control was CEP-32496 (Agerafenib)). After completion of the reaction, detection reagents (reagents in the HTRF KinEASE-TK kit) were added. After incubating for 30 minutes at room temperature, enzyme activity in the presence of various concentrations of the compounds of the present disclosure was determined by Envision microplate reader, and inhibitory activity of different concentrations of the compounds on enzyme activity was calculated. The inhibitory activity of different concentrations of the compounds on enzyme activity was fitted by Graphpad 5.0 software, and the IC50 value was calculated.

RET V804M = molecular target: T2, RET V804M (Homo sapiens, UniProt P07949, V804M); experiment: Inhibition of kinase, RET V804M (HTRF KinEASE-TK); type: biochemical
T2 construct: purchased Signalchem R02—12GG
Protocol: as §7, §8, §9

T1 sequence (P07949 29-1114): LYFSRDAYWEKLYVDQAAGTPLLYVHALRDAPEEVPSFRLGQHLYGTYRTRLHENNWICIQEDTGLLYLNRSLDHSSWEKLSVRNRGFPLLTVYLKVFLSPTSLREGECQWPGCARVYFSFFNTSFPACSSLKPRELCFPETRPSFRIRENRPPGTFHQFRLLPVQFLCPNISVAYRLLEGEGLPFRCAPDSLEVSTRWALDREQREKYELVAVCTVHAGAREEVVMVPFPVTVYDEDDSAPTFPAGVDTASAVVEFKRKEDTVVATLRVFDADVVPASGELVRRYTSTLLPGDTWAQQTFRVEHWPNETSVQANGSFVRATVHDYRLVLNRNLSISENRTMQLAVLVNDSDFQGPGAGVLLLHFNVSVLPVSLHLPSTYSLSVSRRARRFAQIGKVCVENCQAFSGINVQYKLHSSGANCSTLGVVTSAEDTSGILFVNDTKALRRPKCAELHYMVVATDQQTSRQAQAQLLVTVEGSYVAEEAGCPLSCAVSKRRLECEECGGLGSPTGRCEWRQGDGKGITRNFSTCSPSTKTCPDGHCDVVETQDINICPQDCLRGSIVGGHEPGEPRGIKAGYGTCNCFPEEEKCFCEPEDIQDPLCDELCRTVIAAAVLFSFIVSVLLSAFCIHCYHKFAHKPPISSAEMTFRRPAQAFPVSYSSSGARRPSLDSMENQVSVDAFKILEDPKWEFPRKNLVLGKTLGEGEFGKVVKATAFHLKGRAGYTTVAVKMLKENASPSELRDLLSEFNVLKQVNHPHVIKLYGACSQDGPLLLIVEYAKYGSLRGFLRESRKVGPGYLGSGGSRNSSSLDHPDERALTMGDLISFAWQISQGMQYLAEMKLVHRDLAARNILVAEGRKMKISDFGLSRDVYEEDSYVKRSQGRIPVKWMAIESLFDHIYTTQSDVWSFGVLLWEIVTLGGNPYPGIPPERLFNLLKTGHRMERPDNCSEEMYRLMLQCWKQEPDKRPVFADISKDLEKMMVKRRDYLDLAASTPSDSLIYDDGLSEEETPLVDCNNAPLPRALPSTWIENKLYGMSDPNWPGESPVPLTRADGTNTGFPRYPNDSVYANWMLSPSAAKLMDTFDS
T2 sequence (P07949 29-1114 V804M): as the sequence (P07949 29-1114) above, with V776M counted along it

Row | IC50 (Ret wt) [nM] | IC50 (RET V804M) [nM] | SMILES | Tumor volume (x ± S), Day 0 of administration [1] [mm^3] | Tumor volume (x ± S), Day 13 of administration [1] [mm^3] | TGI (%), Day 13 of administration [1] | relative tumor inhibition rate TGI (%) [1] [%] | Number of animals at the beginning/end of assay [2] | Average weight g (x ± S), Day 0 of administration [2] [g] | Average weight g (x ± S), Day 13 of administration [2] [g] | Weight change rate (%), Day 13 of administration [2] [%] | tolerability (weight loss, drug withdrawal, drug toxicity) [2] | Number of animals at the beginning/end of assay [3] | Average weight g (x ± S), Day 0 of administration [3] [g] | Average weight g (x ± S), Day 14 of administration [3] [g] | Weight change rate (%), Day 14 of administration [3] [%] | tolerability (weight loss, drug withdrawal, drug toxicity) [3] | Tumor volume (x ± S), Day 0 of administration [4] [mm^3] | TGI (%), Day 14 of administration [4] [%] | Tumor volume (x ± S), Day 14 of administration [4] [mm^3]
1 | ≤ 0.5 | 1 to 10 | CC(C)c1nc(-c2ccc(CC(=O)Nc3cc(C(C)(C)C(F)(F)F)on3)cc2)c2c(N)nccn12 [Compound T-4, 2-(4-(8-amino-3-isopropylimidazo[1,5-a]pyrazin-1-yl)phenyl)-N-(5-(1,1,1-trifluoro-2-methylprop-2-yl)isoxazol-3-yl)acetamide] | – | – | – | – | – | – | – | – | – | – | – | – | – | – | – | – | –
2 | 1 to 10 | 1 to 10 | CC(C)n1nc(-c2ccc(CC(=O)Nc3cc(C(C)(C)C(F)(F)F)on3)cn2)c2c(N)ncnc21 [Compound T-7, 2-(6-(4-amino-1-isopropyl-1H-pyrazolo[3,4-d]pyrimidin-3-yl)pyridin-3-yl)-N-(5-(1,1,1-trifluoro-2-methylprop-2-yl)isoxazol-3-yl)acetamide] | – | – | – | – | – | – | – | – | – | – | – | – | – | – | – | – | –
3 | 10 to 50 | 1 to 10 | [2H]C([2H])([2H])C(n1cc(-c2ccc(CC(=O)Nc3cc(C(C)(C)C(F)(F)F)on3)cc2)c2c(N)ncnc21)C([2H])([2H])[2H] [Compound T-12, 2-(4-(4-amino-7-(propen-2-yl-1,1,1,3,3,d6)-7H-pyrrolo[2,3-d]pyrimidin-5-yl)phenyl)-N-(5-(1,1,1-trifluo-2-methylpropan-2-yl)isoxazol-3-yl)acetamide] | – | – | – | – | – | – | – | – | – | – | – | – | – | – | – | – | –

The remaining lines, values behind:

Row | SMILES | IC50 (Ret wt) [nM] | IC50 (RET V804M) [nM] | Tumor volume (x ± S), Day 0 of administration [1] [mm^3] | Tumor volume (x ± S), Day 13 of administration [1] [mm^3] | TGI (%), Day 13 of administration [1] | relative tumor inhibition rate TGI (%) [1] [%] | Number of animals at the beginning/end of assay [2] | Average weight g (x ± S), Day 0 of administration [2] [g] | Average weight g (x ± S), Day 13 of administration [2] [g] | Weight change rate (%), Day 13 of administration [2] [%] | tolerability (weight loss, drug withdrawal, drug toxicity) [2] | Number of animals at the beginning/end of assay [3] | Average weight g (x ± S), Day 0 of administration [3] [g] | Average weight g (x ± S), Day 14 of administration [3] [g] | Weight change rate (%), Day 14 of administration [3] [%] | tolerability (weight loss, drug withdrawal, drug toxicity) [3] | Tumor volume (x ± S), Day 0 of administration [4] [mm^3] | TGI (%), Day 14 of administration [4] [%] | Tumor volume (x ± S), Day 14 of administration [4] [mm^3]
4 | CC(C)n1nc(-c2ccc(NC(=O)Nc3cc(C(F)(F)F)ccc3F)cc2)c2c(N)ncnc21 [AD80, reference compound] | – | – | 94.7 ± 5.24 | 185.7 ± 33.65 | 75.2% | 75.2 | 3/3 | 19.9 ± 0.44 | 20.7 ± 1.53 | 4.14 | well tolerated | 3/3 | 20.1 ± 0.81 | 22.6 ± 0.87 | 12.7 | well tolerated | 100.3 ± 4.33 | 46.4 | 821.7 ± 54.5
5 | CC(C)n1nc(-c2ccc(CC(=O)Nc3cc(C(C)(C)C(F)(F)F)on3)cc2)c2c(N)ncnc21 [Compound T-1, 2-(4-(4-amino-1-isopropyl-1H-pyrazolo[3,4-d]pyrimidin-3-yl)phenyl)-N-(5-(1,1,1-trifluoro-2-methylprop-2-yl)isoxazol-3-yl)acetamide] | ≤ 0.5 | ≤ 0.5 | 98 ± 3.61 | 63.7 ± 16.19 | 109.4%# | 109.4 | 3/3 | 20.3 ± 1.32 | 21.3 ± 1.19 | 4.90 | well tolerated | 3/3 | 20.9 ± 1.06 | 21.6 ± 1.05 | 3.4 | well tolerated | 102.7 ± 6.06 | 90.3 | 233 ± 65.74
6 | CC(C)n1nc(-c2ccc(NC(=O)Nc3cc(C(C)(C)C(F)(F)F)on3)cc2)c2c(N)ncnc21 [Compound T-2, 1-(4-(4-amino-1-isopropyl-1H-pyrazolo[3,4-d]pyrimidin-3-yl)phenyl)-3-(5-(1,1,1-trifluoro-2-methylprop-2-yl)isoxazol-3-yl)urea] | ≤ 0.5 | 1 to 10 | 94.3 ± 3.84 | 150.7 ± 4.33 | 84.6% | 84.6 | 3/3 | 19.6 ± 0.47 | 21.7 ± 0.74 | 11.05 | well tolerated | 3/3 | 20.1 ± 0.56 | 21.7 ± 0.59 | 8.1 | well tolerated | 102 ± 5.51 | 63.9 | 588.7 ± 25.3
7 | CC(C)n1nc(-c2ccc(CC(=O)Nc3cc(C(C)(C)C(F)(F)F)no3)cc2)c2c(N)ncnc21 [Compound T-8, 2-(4-(4-amino-1-isopropyl-1H-pyrazolo[3,4-d]pyrimidin-3-yl)phenyl)-N-(3-(1,1,1-trifluoro-2-methylprop-2-yl)isoxazol-5-yl)acetamide] | – | – | 96.7 ± 6.74 | 90.7 ± 8.41 | 101.6%# | 101.6 | 3/3 | 19.6 ± 0.32 | 22.5 ± 0.73 | 14.40 | well tolerated | 3/3 | 20.5 ± 1.07 | 21.7 ± 0.82 | 6.0 | well tolerated | 101.3 ± 4.33 | 95.4 | 163.7 ± 19.74
8 | [2H]C([2H])([2H])C(n1nc(-c2ccc(CC(=O)Nc3cc(C(C)(C)C(F)(F)F)no3)cc2)c2c(N)ncnc21)C([2H])([2H])[2H] [Compound T-11, 2-(4-(4-amino-1-(propan-2-yl-1,1,1,3,3,3-d6)-1H-pyrazolo[3,4-d]pyrimidin-3-yl)phenyl)-N-(3-(1,1,1-trifluoro-2-methylpropan-2-yl)isoxazol-5-yl)acetamide] | 1 to 10 | 1 to 10 | – | – | – | – | – | – | – | – | – | – | – | – | – | – | – | – | –

Reference: patent US20220380375A1, “SUBSTITUTED AROMATIC FUSED RING DERIVATIVE AND COMPOSITION COMPRISING SAME, AND USE THEREOF” (Shenzhen TargetRx, Inc., priority 2019, published 2022)
